In patent US20110123623A1, “RHAMNOLIPID MECHANISM” (priority 2009, published 2011):

Experiments:
[1] = Storage stability of Di-rhamnolipid W3CTS; format: physicochemical; settings: kept under Nitrogen in bottles at room temperature, 10 years
From the text: Di-rhamnolipid W3CTS has been isolated from Pseudomonas aeruginosa. Production of >98.5% pure Di-rhamnolipid W3CTS is a very expensive procedure; thus, the goal is to produce the clinically accepted purity of the rhamnolipid that has a long shelf life.

[2] = tested on: B-lymphocyte cells isolated from the spleen of balb/c mice; assay: Mouse B-cell proliferation (thymidine incorporation); format: cell-based
Method: T-lymphocyte cells isolated from thymus of balb/c mice weighing 17±1 g were used. Test compound and/or vehicle was incubated with the cells (4×10^6/ml) in the presence of 3 μg/ml concanavalin A (Con A) overnight. Thymidine incorporation was assessed by liquid scintillation counting. B-lymphocyte cells isolated from the spleen of balb/c mice weighing 17±1 g were used. Test compound and/or vehicle was incubated with the cells (1.5×10^6/ml) in the presence of 10 μg/ml lipopolysaccharide (LPS) in AIM-V medium pH 7.4 at 37° C., during 24 hours. [^3H]Thymidine (120 nM) was then added for an additional overnight incubation period. Thymidine incorporation was assessed by liquid scintillation counting. […] T-cells isolated from mouse thymus were inhibited at the concentration of 10 μM by 24% and in the presence of concanavalin T-cells proliferation was inhibited 43%.

C. albicans [3] = assay: Immunomodulation activity: C. albicans challenge survival; format: in vivo, mouse; settings: 100 mg/kg i/p 24 hours before i/v C. albicans challenge; ICR male mice
Method: Di-rhamnolipid W3CTS was administered i/p (100 mg/kg) to groups of 10 ICR derived male mice weighing 24±2 g at 24 hours before i/v challenge with a suspension of C. albicans (1×10^7 cfu/mouse) sufficient to result in 90-100% mortality within 10 days in vehicle treated animals. Survival of 20 percent or more (≧20) of the animals is considered significant and indicates possible immunomodulation activity. Reference agent was lipopolysaccharide 0.3 mg/kg i/p.

C. albicans [4] = assay: Immunorestoration activity: cyclophosphamide immunosuppression and C. albicans challenge; format: in vivo, mouse; settings: 100 mg/kg i/p days 1, 3, 5, cyclophosphamide 30 mg/kg p/o days 2, 4, 6
Method: Di-rhamnolipid W3CTS was administered i/p. (100 mg/kg) to groups of ICR derived male mice weighing 22±2 g on days 1, 3, and 5, with the immunosuppressant cyclophosphamide (30 mg/kg p/o.) administered on days 2, 4, and 6. One day after the last immunosuppressant dose, the mice were challenged with a suspension of C. Albicans sufficient to result in 90-100% mortality within 10 days in vehicle treated animals. Survival of 30 percent or more (≧30) of the animals was considered significant and indicated possible immunorestoration activity. Reference agent was lipopolysaccharide 0.3 mg/kg i/p.

[5] = tested on: female Swiss-Webster mice; assay: Induction and challenge phases of DTH in the mouse ear; format: in vivo
From the text: Effects of Di-Rhamnolipid W3CTS on the Induction and Challenge Phases of DTH in Female Swiss-Webster Mice.
The aims of this study were first, to evaluate the in-vivo effects of Di-rhamnolipid W3CTS on aspects of a T-cell mediated immune response in mice and second, to determine if Di-rhamnolipid W3CTS was a sensitizing agent. This formed one of a series of studies to evaluate the toxicity and functionality of Di-rhamnolipid W3CTS.
The model used was induced delayed-type hypersensitivity (DTH) response in the mouse ear. In general, the DTH model involves administering a sensitizing agent mixed with an adjuvant, one or more occasions to prime the immune system. One to two weeks after the final induction and boost(s), animals are re-exposed to the sensitizing antigen, with a small volume injected intradermally in the ear, to elicit a secondary response (challenge). The ear swells during the secondary T-cell mediated response, and thus the change in ear thickness from prestimulation can be quantified. The present study had several sub-components testing different components of the immune response.
Parts A & B followed the standard procedure, in which the treatment test article, Di-rhamnolipid W3CTS, was administered topically concurrent to the challenge with sensitizing agent. Additionally, the effects of Di-rhamnolipid W3CTS on development of the primary immune response were also tested (Parts C&D). Therefore it was possible to obtain preliminary information about potential activity of Di-rhamnolipid W3CTS on more than one arm of the immune system. In parts B, C, and D, the protein ovalbumin, in CFA (Complete Freund's Adjuvant) or IFA (Incomplete Freund's Adjuvant) was used as the sensitizing agent as it is a standard with well-characterized, quantifiable activity in DTH. An additional compound, DNCB (1-chloro-2,4-di-nitro benzene) with gamma interferon (IFN-gamma), was also used (Group A) in order to maximize the opportunity to characterize the activity of Di-rhamnolipid W3CTS on T-cell mediated immunity. […]

[6] = tested on: normal Sprague-Dawley rats; assay: Full-thickness burn wounds, topical treatment; format: in vivo, rat
Method: The effects of Di-rhamnolipid W3CTS on full-thickness burn wounds in normal Sprague-Dawley rats.
Di-rhamnolipid W3CTS was prepared in a eucerine ointment applied topically on full-thickness burn wounds in normal Sprague-Dawley rats covering 5% of the whole skin area. The rate of wound closure was measured over the period of 45 days. The collagen content was evaluated microscopically, by performing densitometric analysis on Verhoeff's stained histopathological slides of wound biopsies taken at the end of 45th day of di-rhamnolipid treatment. The treatment of full thickness-burn wounds covering 5% of the whole body skin area with topical applications (2 per day) of 0.1% di-rhamnolipid in eucerine ointment accelerated the closure of wounds on day 21 of the treatment by 32% compared to the control (p<0.05). […] The results of this study raise the possibility of potential efficacy of di-rhamnolipid in accelerating normal wound healing and perhaps in overcoming defects associated with healing failure in chronic wounds.

## CCCCCCCC(CC(=O)O)OC(=O)CC(CCCCCCC)OC1OC(C)C(O)C(O)C1OC1OC(C)C(O)C(O)C1O (centres unmarked) [Di-rhamnolipid W3CTS]
[1]
  change of structure on storage: did not change its structure during 10 years
[2]; 10 μM in 0.5% DMSO, without LPS
  effect on B-cell proliferation: did not have any effect
[2]; Mus musculus, B-cell, 10 μM, in the presence of LPS
  inhibition at 10 µM: ≤ 54%
C. albicans [3]
  immunomodulation activity (survival of 20 percent or more considered significant): possible significant immunomodulation activity
C. albicans [4]
  immunorestoration activity (survival of 30 percent or more considered significant): possible very significant immunorestoration activity
[5]; concurrently administered at induction with ovalbumin/IFA
  effect on subsequent DTH response (Part C): inhibit the subsequent DTH response
[5]; given at induction
  effect on primary immune response (Part D): did not show potential to enhance a primary immune response
[5]; topical at challenge, ovalbumin/CFA
  effect on secondary immune response, DTH (Part B): sustained or increased DTH response
[6]; 0, 1% in eucerine, biopsies at end of 45th day, p<0.05
  decrease of collagen content in burn wounds vs vehicle: 47.5%
[6]; 0.1% in eucerine ointment, 2 per day topical, day 21, p<0.05
  acceleration of closure of wounds vs control: 32%
[6]; 0.1% ointment, day 35
  wound closure: wounds closed in all animals
